PubChem BioAssay AID2060887 (Molecular Pharmacology Branch, DTP, NCI, 2025)

System: 782815-120-R-J1-PDC complex spheroid viability
Experiment: Anticancer human tumor 782815-120-R-J1-PDC patient-derived colon adenocarcinoma cell line growth inhibition [RAS]
Details: for IC50: curve of first compound; for viability, T/C: stronger effect = lower value; active = viability on the fitted dose curve at most 10% of control; inactive = the rest
In short: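 Agents were tested in combination matrices in half-log decrements from a top concentration at or near clinical Cmax (10 microM if undetermined). Targets were multi-cell spheroids of tumour lines plus HUVEC and MSC stromal cells.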

[1] = second compound 0.00316 µM, first compound 0.00316 µM
[2] = second compound 0.00316 µM, first compound 0.01 µM
[3] = second compound 0.00316 µM, first compound 0.0316 µM
[4] = second compound 0.00316 µM, first compound 0.1 µM
[5] = second compound 0.00316 µM, first compound 0.316 µM
[6] = second compound 0.00316 µM, first compound 1 µM
[7] = second compound 0.01 µM, first compound 0.00316 µM
[8] = second compound 0.01 µM, first compound 0.01 µM
[9] = second compound 0.01 µM, first compound 0.0316 µM
[10] = second compound 0.01 µM, first compound 0.1 µM
[11] = second compound 0.01 µM, first compound 0.316 µM
[12] = second compound 0.01 µM, first compound 1 µM
[13] = second compound 0.0316 µM, first compound 0.00316 µM
[14] = second compound 0.0316 µM, first compound 0.01 µM
[15] = second compound 0.0316 µM, first compound 0.0316 µM
[16] = second compound 0.0316 µM, first compound 0.1 µM
[17] = second compound 0.0316 µM, first compound 0.316 µM
[18] = second compound 0.0316 µM, first compound 1 µM
[19] = second compound 0.1 µM, first compound 0.00316 µM
[20] = second compound 0.1 µM, first compound 0.01 µM
[21] = second compound 0.1 µM, first compound 0.0316 µM
[22] = second compound 0.1 µM, first compound 0.1 µM
[23] = second compound 0.1 µM, first compound 0.316 µM
[24] = second compound 0.1 µM, first compound 1 µM
[25] = second compound 0.316 µM, first compound 0.00316 µM
[26] = second compound 0.316 µM, first compound 0.01 µM
[27] = second compound 0.316 µM, first compound 0.0316 µM
[28] = second compound 0.316 µM, first compound 0.1 µM
[29] = second compound 0.316 µM, first compound 0.316 µM
[30] = second compound 0.316 µM, first compound 1 µM
[31] = second compound 1 µM, first compound 0.00316 µM
[32] = second compound 1 µM, first compound 0.01 µM
[33] = second compound 1 µM, first compound 0.0316 µM
[34] = second compound 1 µM, first compound 0.1 µM
[35] = second compound 1 µM, first compound 0.316 µM
[36] = second compound 1 µM, first compound 1 µM
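Also: spheroids exposed to compounds for 7 days before reading.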
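For viability, T/C in this document: 100% = DMSO vehicle control viability.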

CC1(C)CCC(Nc2ncc(C(F)(F)F)c(-c3c[nH]c4c(P(C)(C)=O)c(C#N)ccc34)n2)CN1 (stereo not drawn) + C#Cc1c(F)ccc2cc(O)cc(-c3ncc4c(N5CC6CCC(C5)N6)nc(OCC56CCCN5CC(F)C6)nc4c3F)c12
inactive: viability, T/C (second compound 0.0316 µM, first compound 0.000949 µM) 98.2% | viability, T/C (second compound 0.0316 µM, first compound 0.003 µM) 101% | viability, T/C (second compound 0.0316 µM, first compound 0.00949 µM) 90.6% | viability, T/C (second compound 0.0316 µM, first compound 0.03 µM) 65.4% | viability, T/C (second compound 0.0316 µM, first compound 0.0949 µM) 58.1% | viability, T/C (second compound 0.0316 µM, first compound 0.3 µM) 60.2% | viability, T/C (second compound 0.1 µM, first compound 0.000949 µM) 93.2% | viability, T/C (second compound 0.1 µM, first compound 0.003 µM) 98.4% | viability, T/C (second compound 0.1 µM, first compound 0.00949 µM) 84.4% | viability, T/C (second compound 0.1 µM, first compound 0.03 µM) 70.2% | viability, T/C (second compound 0.1 µM, first compound 0.0949 µM) 61.2% | viability, T/C (second compound 0.1 µM, first compound 0.3 µM) 56.9% | viability, T/C (second compound 0.316 µM, first compound 0.000949 µM) 96.5% | viability, T/C (second compound 0.316 µM, first compound 0.003 µM) 92.9% | viability, T/C (second compound 0.316 µM, first compound 0.00949 µM) 90.4% | viability, T/C (second compound 0.316 µM, first compound 0.03 µM) 64.8% | viability, T/C (second compound 0.316 µM, first compound 0.0949 µM) 61.8% | viability, T/C (second compound 0.316 µM, first compound 0.3 µM) 57.9% | viability, T/C (second compound 1 µM, first compound 0.000949 µM) 95% | viability, T/C (second compound 1 µM, first compound 0.003 µM) 99.6% | viability, T/C (second compound 1 µM, first compound 0.00949 µM) 74.7% | viability, T/C (second compound 1 µM, first compound 0.03 µM) 65.2% | viability, T/C (second compound 1 µM, first compound 0.0949 µM) 64.3% | viability, T/C (second compound 1 µM, first compound 0.3 µM) 58.5% | viability, T/C (second compound 3.16 µM, first compound 0.000949 µM) 90.8% | viability, T/C (second compound 3.16 µM, first compound 0.003 µM) 94.1% | viability, T/C (second compound 3.16 µM, first compound 0.00949 µM) 80% | viability, T/C (second compound 3.16 µM, first compound 0.03 µM) 65.2% | viability, T/C (second compound 3.16 µM, first compound 0.0949 µM) 57.6% | viability, T/C (second compound 3.16 µM, first compound 0.3 µM) 63.5% | viability, T/C (second compound 10 µM, first compound 0.000949 µM) 93.9% | viability, T/C (second compound 10 µM, first compound 0.003 µM) 98.8% | viability, T/C (second compound 10 µM, first compound 0.00949 µM) 75.4% | viability, T/C (second compound 10 µM, first compound 0.03 µM) 69.6% | viability, T/C (second compound 10 µM, first compound 0.0949 µM) 65% | viability, T/C (second compound 10 µM, first compound 0.3 µM) 60.4%
> 300 nM: IC50 (second compound 0.0316 µM) | IC50 (second compound 0.1 µM) | IC50 (second compound 0.316 µM) | IC50 (second compound 1 µM) | IC50 (second compound 3.16 µM) | IC50 (second compound 10 µM)

C=CC(=O)Nc1cc(Nc2nccc(-c3cn(C)c4ccccc34)n2)c(OC)cc1N(C)CCN(C)C + C=CC(=O)N1CCN(c2nc(OCC3CCCN3C)nc3c(F)c(-c4nc(N)cc(C)c4C(F)(F)F)c(Cl)cc23)C(C)C1
inactive: viability, T/C [1] 92.7% | viability, T/C [2] 98.3% | viability, T/C [3] 101% | viability, T/C [4] 95% | viability, T/C [5] 92.9% | viability, T/C [6] 99.8% | viability, T/C [7] 91.9% | viability, T/C [8] 92% | viability, T/C [9] 91.8% | viability, T/C [10] 91.6% | viability, T/C [11] 93.8% | viability, T/C [12] 91% | viability, T/C [13] 98.3% | viability, T/C [14] 101% | viability, T/C [15] 98.1% | viability, T/C [16] 92.1% | viability, T/C [17] 92.9% | viability, T/C [18] 88.5% | viability, T/C [19] 100% | viability, T/C [20] 88.6% | viability, T/C [21] 96% | viability, T/C [22] 92.9% | viability, T/C [23] 109% | viability, T/C [24] 90.7% | viability, T/C [25] 101% | viability, T/C [26] 95.1% | viability, T/C [27] 92.3% | viability, T/C [28] 95.6% | viability, T/C [29] 93.9% | viability, T/C [30] 91.6% | viability, T/C [31] 96.6% | viability, T/C [32] 90.1% | viability, T/C [33] 90.3% | viability, T/C [34] 96% | viability, T/C [35] 93.4% | viability, T/C [36] 91.7%
> 1000 nM: IC50 (second compound 0.00316 µM) | IC50 (second compound 0.01 µM) | IC50 (second compound 0.0316 µM) | IC50 (second compound 0.1 µM) | IC50 (second compound 0.316 µM) | IC50 (second compound 1 µM)

CC(Nc1ccc2c(c1)OCCn1cc(N3C(=O)OCC3C(F)F)nc1-2)C(N)=O (stereo not drawn) + C=CC(=O)N1CCN(c2nc(OCC3CCCN3C)nc3c(F)c(-c4nc(N)cc(C)c4C(F)(F)F)c(Cl)cc23)C(C)C1
> 10000 nM: IC50 (second compound 0.00316 µM) | IC50 (second compound 0.01 µM) | IC50 (second compound 0.0316 µM) | IC50 (second compound 0.1 µM) | IC50 (second compound 0.316 µM) | IC50 (second compound 1 µM)
inactive: viability, T/C [3] 92.9% | viability, T/C [4] 87.6% | viability, T/C [5] 88.4% | viability, T/C [6] 79.1% | viability, T/C (second compound 0.00316 µM, first compound 3.16 µM) 99.6% | viability, T/C (second compound 0.00316 µM, first compound 10 µM) 103% | viability, T/C [9] 93.5% | viability, T/C [10] 98.6% | viability, T/C [11] 95.8% | viability, T/C [12] 83.6% | viability, T/C (second compound 0.01 µM, first compound 3.16 µM) 103% | viability, T/C (second compound 0.01 µM, first compound 10 µM) 98.8% | viability, T/C [15] 93.2% | viability, T/C [16] 93.6% | viability, T/C [17] 82.3% | viability, T/C [18] 80.6% | viability, T/C (second compound 0.0316 µM, first compound 3.16 µM) 87.8% | viability, T/C (second compound 0.0316 µM, first compound 10 µM) 93.3% | viability, T/C [21] 88.3% | viability, T/C [22] 91.1% | viability, T/C [23] 94.1% | viability, T/C [24] 86.1% | viability, T/C (second compound 0.1 µM, first compound 3.16 µM) 102% | viability, T/C (second compound 0.1 µM, first compound 10 µM) 93.2% | viability, T/C [27] 93.6% | viability, T/C [28] 86.4% | viability, T/C [29] 86.4% | viability, T/C [30] 89.2% | viability, T/C (second compound 0.316 µM, first compound 3.16 µM) 85.1% | viability, T/C (second compound 0.316 µM, first compound 10 µM) 101% | viability, T/C [33] 95.2% | viability, T/C [34] 79.5% | viability, T/C [35] 87.2% | viability, T/C [36] 85.2% | viability, T/C (second compound 1 µM, first compound 3.16 µM) 97.8% | viability, T/C (second compound 1 µM, first compound 10 µM) 92.8%

O=C(c1ccc(F)c(F)c1Nc1ccc(I)cc1F)N1CC(O)([C@@H]2CCCCN2)C1 + C=CC(=O)N1CCN(c2nc(OCC3CCCN3C)nc3c(F)c(-c4nc(N)cc(C)c4C(F)(F)F)c(Cl)cc23)C(C)C1
74.5 nM: IC50 (second compound 0.00316 µM)
67.5 nM: IC50 (second compound 0.0316 µM)
67.8 nM: IC50 (second compound 0.01 µM)
83.8 nM: IC50 (second compound 0.316 µM)
active: viability, T/C [6] 3.64% | viability, T/C [12] 4.13% | viability, T/C [18] 4.19% | viability, T/C [24] 4.3% | viability, T/C [30] 4.23% | viability, T/C [36] 4.2%
inactive: viability, T/C [1] 91.2% | viability, T/C [2] 87.7% | viability, T/C [3] 64.6% | viability, T/C [4] 44.3% | viability, T/C [5] 21.8% | viability, T/C [7] 93.1% | viability, T/C [8] 86.5% | viability, T/C [9] 64.6% | viability, T/C [10] 40.9% | viability, T/C [11] 21.7% | viability, T/C [13] 99.3% | viability, T/C [14] 79.5% | viability, T/C [15] 64.2% | viability, T/C [16] 46.3% | viability, T/C [17] 19% | viability, T/C [19] 84.1% | viability, T/C [20] 90.1% | viability, T/C [21] 68.3% | viability, T/C [22] 52.4% | viability, T/C [23] 20.7% | viability, T/C [25] 90.5% | viability, T/C [26] 88.5% | viability, T/C [27] 66.2% | viability, T/C [28] 47.7% | viability, T/C [29] 22% | viability, T/C [31] 88.9% | viability, T/C [32] 93.5% | viability, T/C [33] 66.1% | viability, T/C [34] 45.5% | viability, T/C [35] 23.1%
82.1 nM: IC50 (second compound 1 µM)
100 nM: IC50 (second compound 0.1 µM)
